Legend:
Assay in all cases: relative viability (nuclei count vs DMSO), 5 days (fraction); higher = more cells survive
NCI-H1944 = tested on: NCI-H1944
Procedure, shortened: (§1)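 Each reported value is a median over duplicate plates. It expresses relative viability: treated-well nuclei count divided by vehicle-well nuclei count. Lung cancer cell lines in 1536-well plates were dosed by pin tool a day after seeding, alone with one drug or with a fixed anchor-drug dose plus five library-drug doses (not always all listed) in √10 steps, and nuclei were counted after 5 days.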

NCI-H1651 = tested on: NCI-H1651
Procedure, shortened: as §1

NCI-H1395 = tested on: NCI-H1395
Procedure, shortened: as §1

EMC-BAC-2 = tested on: EMC-BAC-2
Procedure, shortened: as §1

EPLC-272H = tested on: EPLC-272H
Procedure, shortened: as §1

NCI-H520 = tested on: NCI-H520
Procedure, shortened: as §1

NCI-H838 = tested on: NCI-H838
Procedure, shortened: as §1

LU99A = tested on: LU99A
Procedure, shortened: as §1

NCI-H2087 = tested on: NCI-H2087
Procedure, shortened: as §1

ChaGo-K-1 = tested on: ChaGo-K-1
Procedure, shortened: as §1

HCC-827 = tested on: HCC-827
Procedure, shortened: as §1

NCI-H1793 = tested on: NCI-H1793
Procedure, shortened: as §1

HCC-44 = tested on: HCC-44
Procedure, shortened: as §1

NCI-H2405 = tested on: NCI-H2405
Procedure, shortened: as §1

NCI-H650 = tested on: NCI-H650
Procedure, shortened: as §1

NCI-H2023 = tested on: NCI-H2023
Procedure, shortened: as §1

LCLC-103H = tested on: LCLC-103H
Procedure, shortened: as §1

COR-L23 = tested on: COR-L23
Procedure, shortened: as §1

NCI-H2085 = tested on: NCI-H2085
Procedure, shortened: as §1

SK-MES-1 = tested on: SK-MES-1
Procedure, shortened: as §1

H3255 = tested on: H3255
Procedure, shortened: as §1

O=c1cc(-c2cccc3c2Sc2ccccc2S3)oc(N2CCOCC2)c1 + CC(=O)c1c(C)c2cnc(Nc3ccc(N4CCNCC4)cn3)nc2n(C2CCCC2)c1=O [Palbociclib] (partner 0.5 µM)
relative viability (NCI-H1944; first compound 0.08 µM): 0.313 | relative viability (NCI-H1944; first compound 0.253 µM): 0.329 | relative viability (NCI-H1944; first compound 0.8 µM): 0.302 | relative viability (NCI-H1944; first compound 2.53 µM): 0.335 | relative viability (NCI-H1944; first compound 8 µM): 0.318 | relative viability (NCI-H1651; first compound 0.08 µM): 0.523 | relative viability (NCI-H1651; first compound 0.253 µM): 0.537 | relative viability (NCI-H1651; first compound 0.8 µM): 0.524 | relative viability (NCI-H1651; first compound 2.53 µM): 0.509 | relative viability (NCI-H1651; first compound 8 µM): 0.537 | relative viability (NCI-H1395; first compound 0.08 µM): 0.62 | relative viability (NCI-H1395; first compound 0.253 µM): 0.539 | relative viability (NCI-H1395; first compound 0.8 µM): 0.568 | relative viability (NCI-H1395; first compound 2.53 µM): 0.574 | relative viability (NCI-H1395; first compound 8 µM): 0.638 | relative viability (EMC-BAC-2; first compound 0.08 µM): 0.511 | relative viability (EMC-BAC-2; first compound 0.253 µM): 0.529 | relative viability (EMC-BAC-2; first compound 0.8 µM): 0.536 | relative viability (EMC-BAC-2; first compound 2.53 µM): 0.538 | relative viability (EMC-BAC-2; first compound 8 µM): 0.543 | relative viability (EPLC-272H; first compound 0.08 µM): 0.34 | relative viability (EPLC-272H; first compound 0.253 µM): 0.318 | relative viability (EPLC-272H; first compound 0.8 µM): 0.321 | relative viability (EPLC-272H; first compound 2.53 µM): 0.287 | relative viability (EPLC-272H; first compound 8 µM): 0.285 | relative viability (NCI-H520; first compound 0.08 µM): 0.233 | relative viability (NCI-H520; first compound 0.253 µM): 0.22 | relative viability (NCI-H520; first compound 0.8 µM): 0.21 | relative viability (NCI-H520; first compound 2.53 µM): 0.243 | relative viability (NCI-H520; first compound 8 µM): 0.231 | relative viability (NCI-H838; first compound 0.08 µM): 0.187 | relative viability (NCI-H838; first compound 0.253 µM): 0.265 | relative viability (NCI-H838; first compound 0.8 µM): 0.202 | relative viability (NCI-H838; first compound 2.53 µM): 0.212 | relative viability (NCI-H838; first compound 8 µM): 0.222 | relative viability (LU99A; first compound 0.08 µM): 0.413 | relative viability (LU99A; first compound 0.253 µM): 0.417 | relative viability (LU99A; first compound 0.8 µM): 0.491 | relative viability (LU99A; first compound 2.53 µM): 0.463 | relative viability (LU99A; first compound 8 µM): 0.449 | relative viability (NCI-H2087; first compound 0.08 µM): 0.23 | relative viability (NCI-H2087; first compound 0.253 µM): 0.234 | relative viability (NCI-H2087; first compound 0.8 µM): 0.203 | relative viability (NCI-H2087; first compound 2.53 µM): 0.222 | relative viability (NCI-H2087; first compound 8 µM): 0.201 | relative viability (ChaGo-K-1; first compound 0.08 µM): 0.942 | relative viability (ChaGo-K-1; first compound 0.253 µM): 1.12 | relative viability (ChaGo-K-1; first compound 0.8 µM): 0.842 | relative viability (ChaGo-K-1; first compound 2.53 µM): 0.899 | relative viability (ChaGo-K-1; first compound 8 µM): 1.09 | relative viability (HCC-827; first compound 0.08 µM): 0.479 | relative viability (HCC-827; first compound 0.253 µM): 0.493 | relative viability (HCC-827; first compound 0.8 µM): 0.444 | relative viability (HCC-827; first compound 2.53 µM): 0.37 | relative viability (HCC-827; first compound 8 µM): 0.442 | relative viability (NCI-H1793; first compound 0.08 µM): 0.21 | relative viability (NCI-H1793; first compound 0.253 µM): 0.308 | relative viability (NCI-H1793; first compound 0.8 µM): 0.311 | relative viability (NCI-H1793; first compound 2.53 µM): 0.257 | relative viability (NCI-H1793; first compound 8 µM): 0.273 | relative viability (HCC-44; first compound 0.08 µM): 0.965 | relative viability (HCC-44; first compound 0.253 µM): 0.918 | relative viability (HCC-44; first compound 0.8 µM): 0.919 | relative viability (HCC-44; first compound 2.53 µM): 0.958 | relative viability (HCC-44; first compound 8 µM): 0.962 | relative viability (NCI-H2405; first compound 0.08 µM): 0.523 | relative viability (NCI-H2405; first compound 0.253 µM): 0.534 | relative viability (NCI-H2405; first compound 0.8 µM): 0.55 | relative viability (NCI-H2405; first compound 2.53 µM): 0.491 | relative viability (NCI-H2405; first compound 8 µM): 0.503 | relative viability (NCI-H650; first compound 0.08 µM): 0.346 | relative viability (NCI-H650; first compound 0.253 µM): 0.323 | relative viability (NCI-H650; first compound 0.8 µM): 0.372 | relative viability (NCI-H650; first compound 2.53 µM): 0.278 | relative viability (NCI-H650; first compound 8 µM): 0.36 | relative viability (NCI-H2023; first compound 0.08 µM): 0.379 | relative viability (NCI-H2023; first compound 0.253 µM): 0.407 | relative viability (NCI-H2023; first compound 0.8 µM): 0.407 | relative viability (NCI-H2023; first compound 2.53 µM): 0.369 | relative viability (NCI-H2023; first compound 8 µM): 0.291 | relative viability (LCLC-103H; first compound 0.08 µM): 0.461 | relative viability (LCLC-103H; first compound 0.253 µM): 0.51 | relative viability (LCLC-103H; first compound 0.8 µM): 0.477 | relative viability (LCLC-103H; first compound 2.53 µM): 0.46 | relative viability (LCLC-103H; first compound 8 µM): 0.448 | relative viability (COR-L23; first compound 0.08 µM): 0.291 | relative viability (COR-L23; first compound 0.253 µM): 0.307 | relative viability (COR-L23; first compound 0.8 µM): 0.393 | relative viability (COR-L23; first compound 2.53 µM): 0.334 | relative viability (COR-L23; first compound 8 µM): 0.34 | relative viability (NCI-H2085; first compound 0.08 µM): 0.431 | relative viability (NCI-H2085; first compound 0.253 µM): 0.508 | relative viability (NCI-H2085; first compound 0.8 µM): 0.471 | relative viability (NCI-H2085; first compound 2.53 µM): 0.467 | relative viability (NCI-H2085; first compound 8 µM): 0.412 | relative viability (SK-MES-1; first compound 0.08 µM): 0.311 | relative viability (SK-MES-1; first compound 0.253 µM): 0.321 | relative viability (SK-MES-1; first compound 0.8 µM): 0.313 | relative viability (SK-MES-1; first compound 2.53 µM): 0.294 | relative viability (SK-MES-1; first compound 8 µM): 0.286 | relative viability (H3255; first compound 0.08 µM): 0.334 | relative viability (H3255; first compound 0.253 µM): 0.295 | relative viability (H3255; first compound 0.8 µM): 0.305 | relative viability (H3255; first compound 2.53 µM): 0.278 | relative viability (H3255; first compound 8 µM): 0.33

— the supplement of paper PMC10307832
